Calls of active or inactive are those of the source. The calls are words filed in the database; no cut-off is given here.
Columns and labels:
HepG2 = assay: Antiproliferative activity against human HepG2 cells assessed as cell viability rate at 5 uM incubated for 72 hrs by MTT assay relative to control; type: functional
MDA-MB-231 [1] = assay: Antiproliferative activity against human MDA-MB-231 cells assessed as cell viability rate at 5 uM incubated for 72 hrs by MTT assay relative to control; type: functional
A549 [2] = assay: Antiproliferative activity against human A549 cells assessed as cell viability rate at 5 uM incubated for 72 hrs by MTT assay relative to control; type: functional
[3] = biological target: T1, Retinoic acid receptor RXR-alpha (Homo sapiens) (UniProt P19793); assay: Antagonist activity at RXRalpha (unknown origin) transfected in human HeLa cells assessed as inhibition of CD3254- induced receptor transactivation by measuring remaining luciferase activity at 1 uM incubated for 24 hrs by dual luciferase reporter assay; type: cell-based; conditions: filed as antagonist
T1 sequence (whole entry): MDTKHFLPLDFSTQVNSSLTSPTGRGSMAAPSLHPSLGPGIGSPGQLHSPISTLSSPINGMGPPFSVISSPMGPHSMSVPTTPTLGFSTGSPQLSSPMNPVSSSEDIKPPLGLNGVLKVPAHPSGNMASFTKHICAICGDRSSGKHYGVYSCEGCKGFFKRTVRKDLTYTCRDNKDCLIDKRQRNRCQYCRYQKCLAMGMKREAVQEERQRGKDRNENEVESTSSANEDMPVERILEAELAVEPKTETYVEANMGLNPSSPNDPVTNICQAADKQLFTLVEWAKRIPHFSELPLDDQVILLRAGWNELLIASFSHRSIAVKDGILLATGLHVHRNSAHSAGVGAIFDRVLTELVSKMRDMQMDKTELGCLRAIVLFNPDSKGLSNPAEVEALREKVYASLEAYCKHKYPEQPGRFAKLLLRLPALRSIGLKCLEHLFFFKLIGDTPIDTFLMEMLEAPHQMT

[4] = biological target: T1, Retinoic acid receptor RXR-alpha (Homo sapiens); assay: Antagonist activity at RXRalpha (unknown origin) transfected in human HeLa cells assessed as inhibition of CD3254- induced receptor transactivation by measuring remaining luciferase activity at 1 uM incubated for 24 hrs by dual luciferase reporter assay relative to control; type: cell-based; conditions: filed as antagonist
MDA-MB-231 [5] = assay: Antiproliferative activity against human MDA-MB-231 cells assessed as inhibition of cell proliferation incubated for 72 hrs by MTT assay; type: functional, cell-based; conditions: MDA-MB-231, 72 h
[6] = Tmax in Sprague-Dawley rat at 25 mg/kg, ip measured for 48 hrs by LC-MS/MS analysis; type: ADME, organism-based; conditions: in vivo
MDA-MB-231 [7] = assay: Induction of apoptosis in human MDA-MB-231 cells assessed as late apoptotic cells at 20 uM incubated for 24 hrs by annexin V-FITC/PI staining based flow cytometry analysis (reference value: 5.93%); type: functional
[8] = AUC (0 to infinity) in Sprague-Dawley rat at 25 mg/kg, ip measured for 48 hrs by LC-MS/MS analysis; type: ADME, organism-based; design: time 48 hrs, dose 25 mg/kg, route ip; conditions: in vivo
A549 [9] = assay: Induction of apoptosis in human A549 cells assessed as early apoptotic cells at 20 uM incubated for 24 hrs by annexin V-FITC/PI staining based flow cytometry analysis (reference value: 0.78%); type: functional
[10] = Elimination half life in Sprague-Dawley rat at 25 mg/kg, ip measured for 48 hrs by LC-MS/MS analysis; type: ADME, organism-based; conditions: in vivo, read-out: beta t1/2 (converted)
[11] = Drug absorption in KM mouse at 25 mg/kg, ip measured after 0.5 to 2 hrs; type: ADME, organism-based; conditions: in vivo, time 0.5-2 hrs
MDA-MB-231 [12] = assay: Induction of apoptosis in human MDA-MB-231 cells assessed as dead cells at 20 uM incubated for 24 hrs by annexin V-FITC/PI staining based flow cytometry analysis (reference value: 0.69%); type: functional
A549 [13] = assay: Induction of apoptosis in human A549 cells assessed as late apoptotic cells at 20 uM incubated for 24 hrs by annexin V-FITC/PI staining based flow cytometry analysis (reference value: 5.28%); type: functional
[14] = Drug absorption in KM mouse at 25 mg/kg, po measured after 0.5 to 2 hrs; type: ADME, organism-based; conditions: in vivo, time 0.5-2 hrs
[15] = Apparent clearance during terminal phase in Sprague-Dawley rat at 25 mg/kg, ip measured for 48 hrs by LC-MS/MS analysis; type: ADME, organism-based; conditions: in vivo, read-out: CLz/F (converted)
[16] = Cmax in Sprague-Dawley rat at 25 mg/kg, ip measured for 48 hrs by LC-MS/MS analysis; type: ADME, organism-based; design: time 48 hrs, dose 25 mg/kg, route ip; conditions: in vivo
[17] = Apparent volume of distribution during terminal phase in Sprague-Dawley rat at 25 mg/kg, ip measured for 48 hrs by LC-MS/MS analysis; type: ADME, organism-based; conditions: in vivo, read-out: Vz/F
A549 [18] = assay: Induction of apoptosis in human A549 cells assessed as live cells at 20 uM incubated for 24 hrs by annexin V-FITC/PI staining based flow cytometry analysis (reference value: 93.2%); type: functional
A549 [19] = assay: Induction of apoptosis in human A549 cells assessed as dead cells at 20 uM incubated for 24 hrs by annexin V-FITC/PI staining based flow cytometry analysis (reference value: 0.75%); type: functional
MDA-MB-231 [20] = assay: Induction of apoptosis in human MDA-MB-231 cells assessed as live cells at 20 uM incubated for 24 hrs by annexin V-FITC/PI staining based flow cytometry analysis (reference value: 91.3%); type: functional
MDA-MB-231 [21] = assay: Induction of apoptosis in human MDA-MB-231 cells assessed as early apoptotic cells at 20 uM incubated for 24 hrs by annexin V-FITC/PI staining based flow cytometry analysis (reference value: 2.03%); type: functional

Row | Compound | Activity (HepG2) [%] | Activity (MDA-MB-231 [1]) [%] | Activity (A549 [2]) [%] | inhibition [3] | IC50 (MDA-MB-231 [5]) [nM] | also measured
1 | Cc1cccc(/C=C/C(=O)Nc2ccc(-c3ccnc(N4CCC(CO)CC4)c3)cn2)c1 | 38.09 | 38.51 | 41 | – | – | –
2 | Cc1cccc(CC(=O)Nc2cc(-c3ccnc(N4CCC(CO)CC4)c3)ccn2)c1 | 60.73 | 46.82 | 73.92 | Active | – | –
3 | Cc1cccc(CC(=O)Nc2ccc(-c3ccnc(N4CCC(CO)CC4)c3)cn2)c1 | 29.6 | 32.19 | 63.99 | – | 2020 | Activity [4]: < 50%
4 | O=C(/C=C/c1ccccc1)Nc1ccc(-c2ccnc(N3CCC(CO)CC3)c2)cn1 | 31.76 | 40.55 | 52.67 | – | – | –
5 | COc1ccc(CC(=O)N/N=C/c2c(O)ccc3ccccc23)cc1 | 48.65 | 51.93 | 82.65 | – | 6880 | Tmax [6]: 2.67 h; Activity (MDA-MB-231 [7]): 12.7%; AUC(0-inf) [8]: 7040 ng·h/mL; Activity (A549 [9]): 26.1%; half-life [10]: 2.13 h; Drug absorption [11]: Active; Activity (MDA-MB-231 [12]): 1.22%; Activity (A549 [13]): 32.7%; Drug absorption [14]: Not Active; CL/F [15]: 61.2 mL/min/kg; Cmax [16]: 1060 ng/mL; Vd/F [17]: 11.3 L/kg; Activity (A549 [18]): 40.1%; Activity (A549 [19]): 1.15%; Activity (MDA-MB-231 [20]): 62.5%; Activity (MDA-MB-231 [21]): 23.5%
6 | CN1CCN(c2cc(-c3ccc(NC(=O)Cc4cccc(F)c4)nc3)ccn2)CC1 | 84.3 | 87.66 | 113.37 | – | – | –
7 | Cc1ccc(CC(=O)Nc2ccc(-c3ccnc(N(C)CCO)c3)cn2)cc1 | 87.52 | 96.17 | 100.97 | – | – | –
8 | COc1cccc(CC(=O)Nc2cc(-c3ccnc(N4CCC(C)CC4)c3)ccn2)c1 | 110.22 | 83.56 | 114.18 | Active | – | –
9 | COc1cccc(CC(=O)Nc2ccc(-c3ccnc(N4CCC(C)CC4)c3)cn2)c1 | 55.19 | 47.74 | 80.24 | Active | 3190 | –
10 | O=C(/C=C/c1cccc(F)c1)Nc1ccc(-c2ccnc(N3CCC(CO)CC3)c2)cn1 | 31.25 | 51.3 | 42.31 | – | – | –
11 | O=C(CCc1ccccc1)Nc1cc(-c2ccnc(N3CCC(CO)CC3)c2)ccn1 | 37.04 | 25.7 | 62.19 | Active | 879 | –
12 | COc1cccc(CC(=O)Nc2ccc(-c3ccnc(N4CCN(C)CC4)c3)cn2)c1 | 85.3 | 99.26 | 103.91 | – | – | –
13 | COc1cccc(CC(=O)Nc2ccc(-c3ccnc(N4CCC(CO)CC4)c3)cn2)c1 | 27.89 | 34.49 | 77.14 | – | 7360 | Activity [4]: < 50%
14 | Cc1cccc(CC(=O)Nc2cc(-c3ccnc(N4CCC(C)CC4)c3)ccn2)c1 | 106.32 | 93.87 | 108.84 | Active | – | –
15 | COc1cccc(CC(=O)Nc2ccc(-c3ccnc(N(C)CCO)c3)cn2)c1 | 86.14 | 96.96 | 93.45 | – | – | –
16 | COc1cccc(CC(=O)Nc2cc(-c3ccnc(N4CCC(CO)CC4)c3)ccn2)c1 | 92.25 | 72.35 | 94.17 | Active | – | –
17 | CC1CCN(c2cc(-c3ccnc(NC(=O)Cc4cccc(F)c4)c3)ccn2)CC1 | 93.8 | 91.09 | 103.8 | Active | – | –
18 | Cc1ccc(CC(=O)Nc2ccc(-c3ccnc(N4CCN(C)CC4)c3)cn2)cc1 | 98.32 | 85.44 | 103.32 | Active | – | –
19 | O=C(Cc1cccc(F)c1)Nc1cc(-c2ccnc(N3CCC(CO)CC3)c2)ccn1 | 88.95 | 82.84 | 98.62 | Active | – | –
20 | Cc1cccc(/C=C/C(=O)Nc2cc(-c3ccnc(N4CCC(CO)CC4)c3)ccn2)c1 | 27.5 | 34.47 | 53.6 | Active | 2610 | –
21 | O=C(/C=C/c1cccc(F)c1)Nc1cc(-c2ccnc(N3CCC(CO)CC3)c2)ccn1 | 46.35 | 31.06 | 55.98 | Active | 44 | –
22 | Cc1ccc(CC(=O)Nc2ccc(-c3ccnc(N4CCC(C)CC4)c3)cn2)cc1 | 88.24 | 76.9 | 91.24 | Active | – | –
23 | CC1CCN(c2cc(-c3ccc(NC(=O)Cc4cccc(F)c4)nc3)ccn2)CC1 | 59.64 | 44.58 | 64.69 | Active | 1460 | –
24 | Cc1cccc(CC(=O)Nc2ccc(-c3ccnc(N4CCN(C)CC4)c3)cn2)c1 | 86.83 | 112.17 | 126.23 | – | – | Activity [4]: < 50%
25 | Cc1ccc(CC(=O)Nc2ccc(-c3ccnc(N4CCC(CO)CC4)c3)cn2)cc1 | 51.27 | 54.12 | 72.28 | Active | – | –
26 | O=C(Cc1cccc(F)c1)Nc1ccc(-c2ccnc(N3CCC(CO)CC3)c2)cn1 | 65.95 | 36.36 | 58.17 | – | 3500 | Activity [4]: < 50%
27 | Cc1cccc(CC(=O)Nc2ccc(-c3ccnc(N4CCC(C)CC4)c3)cn2)c1 | 42.4 | 44.06 | 75.58 | – | 1480 | Activity [4]: < 50%
28 | CN(CCO)c1cc(-c2ccc(NC(=O)Cc3cccc(F)c3)nc2)ccn1 | 91.54 | 101.43 | 92.91 | – | – | –
29 | Cc1cccc(CC(=O)Nc2ccc(-c3ccnc(N(C)CCO)c3)cn2)c1 | 89.85 | 51.81 | 93.2 | – | – | –

— ChEMBL document CHEMBL5321216, “Discovery of bipyridine amide derivatives targeting pRXRα-PLK1 interaction for anticancer therapy” (Eur J Med Chem, 2023)
